Several values for one entry are separate records, joined by “and”; a condition that tells them apart may be missing. Identical values can stand only once. Toxic doses and inconclusive results are not listed. How the source made its calls: active means survival T/C of 150% or more; inactive means T/C below 125% in these data.
Test system: P388 leukemia ip, CD2F1 mice, survival T/C
Assay: NCI In Vivo Anticancer Drug Screen. Data for tumor model P388 Leukemia (intraperitoneal) in CD2F1 (CDF1) mice
Details: endpoint: median survival time, higher = longer survival
Summary of the method: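 Mice carrying the transplanted tumor received test compound or vehicle. Survival was recorded in each group, and the value is the treated-group measurement divided by that of the vehicle-treated control group.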

[1] = dose: 60.0 mg/kg/injection, schedule: Q01DX005 (ip), vehicle: saline with Tween-80
[2] = dose: 120.0 mg/kg/injection, schedule: Q01DX005 (ip), vehicle: saline with Tween-80
[3] = dose: 240.0 mg/kg/injection, schedule: Q01DX005 (ip), vehicle: saline with Tween-80
[4] = dose: 50.0 mg/kg/injection, schedule: Q01DX005 (ip), vehicle: Klucel (hydroxypropylcellulose) (HPC)
[5] = dose: 100.0 mg/kg/injection, schedule: Q01DX005 (ip), vehicle: Klucel (hydroxypropylcellulose) (HPC)
[6] = dose: 50.0 mg/kg/injection, schedule: Q01DX009 (ip), vehicle: saline
[7] = dose: 100.0 mg/kg/injection, schedule: Q01DX009 (ip), vehicle: saline
[8] = dose: 200.0 mg/kg/injection, schedule: Q01DX009 (ip), vehicle: saline

Measured: T/C

CC1C(=O)N(C)C(=O)N(C2CCCCC2)C1=O (stereo not drawn)
inactive: [1] 104 % of control | [2] 104 % of control | [3] 101 % of control

O=C1C(Cl)=C(Oc2ccccc2Cl)C(=O)C(Cl)=C1Oc1ccccc1Cl
inactive: dose: 3.12 mg/kg/injection, schedule: Q01DX005 (ip), vehicle: Klucel (hydroxypropylcellulose) (HPC) 91 % of control and 96 % of control | dose: 6.25 mg/kg/injection, schedule: Q01DX005 (ip), vehicle: Klucel (hydroxypropylcellulose) (HPC) 98 % of control and 92 % of control | dose: 12.5 mg/kg/injection, schedule: Q01DX005 (ip), vehicle: Klucel (hydroxypropylcellulose) (HPC) 86 % of control and 87 % of control and 97 % of control | [4] 102 % of control | [5] 99 % of control | dose: 200.0 mg/kg/injection, schedule: Q01DX005 (ip), vehicle: Klucel (hydroxypropylcellulose) (HPC) 96 % of control

COc1cc2c(cc1C(C)c1ccccc1)OCO2 (stereo not drawn)
inactive: dose: 50.0 mg/kg/injection, schedule: Q01DX005 (ip), vehicle: saline with Tween-80 96 % of control | dose: 100.0 mg/kg/injection, schedule: Q01DX005 (ip), vehicle: saline with Tween-80 96 % of control | dose: 200.0 mg/kg/injection, schedule: Q01DX005 (ip), vehicle: saline with Tween-80 111 % of control

CCO/C(=C\C(=O)c1ccccc1)c1ccccc1
inactive: dose: 50.0 mg/kg/injection, schedule: Q04DX003 (ip), vehicle: saline with Tween-80 100 % of control | dose: 100.0 mg/kg/injection, schedule: Q04DX003 (ip), vehicle: saline with Tween-80 100 % of control | dose: 200.0 mg/kg/injection, schedule: Q04DX003 (ip), vehicle: saline with Tween-80 100 % of control

O=C1C(Br)=C(O)C(c2ccccc2)N1c1ccccc1 (stereo not drawn)
inactive: [1] 110 % of control | [2] 94 % of control | [3] 113 % of control

CCCCCCc1cc(-c2cc(CCCCCC)[nH]n2)n[nH]1
inactive: dose: 60.0 mg/kg/injection, schedule: Q01DX005 (ip), vehicle: Klucel (hydroxypropylcellulose) (HPC) 100 % of control | dose: 120.0 mg/kg/injection, schedule: Q01DX005 (ip), vehicle: Klucel (hydroxypropylcellulose) (HPC) 98 % of control | dose: 240.0 mg/kg/injection, schedule: Q01DX005 (ip), vehicle: Klucel (hydroxypropylcellulose) (HPC) 95 % of control

C=CC(=O)NCCCCCC(=O)O
inactive: [6] 103 % of control | [7] 98 % of control | [8] 103 % of control

CN(C)c1c([N+](=O)[O-])cc2[nH]cnc2c1[N+](=O)[O-]
inactive: dose: 3.12 mg/kg/injection, schedule: Q04DX003 (ip), vehicle: saline with Tween-80 103 % of control | dose: 6.25 mg/kg/injection, schedule: Q04DX003 (ip), vehicle: saline with Tween-80 103 % of control | dose: 12.5 mg/kg/injection, schedule: Q04DX003 (ip), vehicle: saline with Tween-80 105 % of control

c1ccc(-c2nc3ccccc3n2CCc2ccncc2)nc1
inactive: [4] 107 % of control | [5] 104 % of control

COC(=N)CCCCC(=N)OC
inactive: dose: 50.0 mg/kg/injection, schedule: Q01DX005 (ip), vehicle: saline 92 % of control | dose: 100.0 mg/kg/injection, schedule: Q01DX005 (ip), vehicle: saline 97 % of control | dose: 200.0 mg/kg/injection, schedule: Q01DX005 (ip), vehicle: saline 101 % of control

CC1(O)/C=C\C=C(\CO)C2CC(C)(C)C2(O)CC1 (stereo not drawn)
inactive: dose: 6625.0 micrograms/kg/injection, schedule: Q01DX005 (ip), vehicle: Klucel (hydroxypropylcellulose) (HPC) 100 % of control | dose: 13250.0 micrograms/kg/injection, schedule: Q01DX005 (ip), vehicle: Klucel (hydroxypropylcellulose) (HPC) 98 % of control | dose: 26500.0 micrograms/kg/injection, schedule: Q01DX005 (ip), vehicle: Klucel (hydroxypropylcellulose) (HPC) 94 % of control | dose: 53000.0 micrograms/kg/injection, schedule: Q01DX005 (ip), vehicle: Klucel (hydroxypropylcellulose) (HPC) 87 % of control

C[Si]1(C)CCCCC1
inactive: [6] 102 % of control | [7] 95 % of control | [8] 101 % of control | dose: 400.0 mg/kg/injection, schedule: Q01DX009 (ip), vehicle: saline 102 % of control

O.O=C(O)CN(CCN(CC(=O)O)CC(=O)O)CC(=O)O.[Rh+2]
inactive: dose: 100.0 mg/kg/injection, schedule: Q01DX009 (ip), vehicle: saline sonified 90 % of control | dose: 200.0 mg/kg/injection, schedule: Q01DX009 (ip), vehicle: saline sonified 90 % of control | dose: 400.0 mg/kg/injection, schedule: Q01DX009 (ip), vehicle: saline sonified 95 % of control
